Several values for one entry are separate records, joined by “and”; a condition that tells them apart may be missing. Equal entries are not always repeated. Inconclusive results and toxic doses are left out. Cut-off read from the data, not from the text of the source: active = T/C of 150% or more; inactive = T/C below 125%.
Tested on: L1210 leukemia ip in BDF1 mice, survival T/C
Assay: NCI In Vivo Anticancer Drug Screen. Data for tumor model L1210 Leukemia (intraperitoneal) in B6D2F1 (BDF1) mice
Conditions: endpoint: mean survival time, higher = longer survival
Method in brief: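 Tumor was transplanted into mice, which were then dosed with test compound or vehicle alone. Survival was recorded for each group, and the treated figure was expressed relative to the control figure.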

[1] = dose: 25.0 mg/kg/injection, schedule: Q01DX009 (ip), vehicle: saline
[2] = dose: 100.0 mg/kg/injection, schedule: Q04DX003 (ip), vehicle: saline
[3] = dose: 200.0 mg/kg/injection, schedule: Q01DX009 (ip), vehicle: Klucel (hydroxypropylcellulose) (HPC)
[4] = dose: 400.0 mg/kg/injection, schedule: Q01DX009 (ip), vehicle: Klucel (hydroxypropylcellulose) (HPC)
[5] = dose: 100.0 mg/kg/injection, schedule: Q04DX002 (ip), vehicle: Klucel (hydroxypropylcellulose) (HPC)
[6] = dose: 200.0 mg/kg/injection, schedule: Q04DX002 (ip), vehicle: Klucel (hydroxypropylcellulose) (HPC)
[7] = dose: 400.0 mg/kg/injection, schedule: Q04DX002 (ip), vehicle: Klucel (hydroxypropylcellulose) (HPC)
[8] = dose: 100.0 mg/kg/injection, schedule: Q01DX001 (ip), vehicle: saline
[9] = dose: 200.0 mg/kg/injection, schedule: Q01DX001 (ip), vehicle: saline
[10] = dose: 100.0 mg/kg/injection, schedule: Q04DX003 (ip), vehicle: Klucel (hydroxypropylcellulose) (HPC)
[11] = dose: 200.0 mg/kg/injection, schedule: Q04DX003 (ip), vehicle: Klucel (hydroxypropylcellulose) (HPC)

Measured: T/C

CCCCNC(=O)c1cc(NC(=O)Nc2ccc(C3=NCCN3)cc2)cc(NC(=O)Nc2ccc(C3=NCCN3)cc2)c1
inactive: dose: 8.0 mg/kg/injection, schedule: Q01DX Z (ip), vehicle: carboxymethylcellulose (CMC) 122 % of control | dose: 16.0 mg/kg/injection, schedule: Q01DX Z (ip), vehicle: carboxymethylcellulose (CMC) 117 % of control | dose: 62.0 mg/kg/injection, schedule: Q01DX Z (ip), vehicle: carboxymethylcellulose (CMC) 122 % of control | dose: 125.0 mg/kg/injection, schedule: Q01DX Z (ip), vehicle: carboxymethylcellulose (CMC) 122 % of control | dose: 250.0 mg/kg/injection, schedule: Q01DX Z (ip), vehicle: carboxymethylcellulose (CMC) 110 % of control

N#CN=C([S-])[S-].N#CN=C([S-])[S-].[Cu]
inactive: dose: 6.25 mg/kg/injection, schedule: Q01DX009 (ip), vehicle: saline 102 % of control | dose: 12.5 mg/kg/injection, schedule: Q01DX009 (ip), vehicle: saline 96 % of control | [1] 93 % of control

CC1(c2ccco2)NC(=O)N(Cl)C1=O (configuration not stated)
inactive: dose: 6.0 mg/kg/injection, schedule: Q04DX003 (ip), vehicle: saline 93 % of control | dose: 12.0 mg/kg/injection, schedule: Q04DX003 (ip), vehicle: saline 101 % of control | [1] 87 % of control | dose: 32.0 mg/kg/injection, schedule: Q04DX003 (ip), vehicle: saline 95 % of control | dose: 50.0 mg/kg/injection, schedule: Q01DX009 (ip), vehicle: saline 98 % of control | dose: 50.0 mg/kg/injection, schedule: Q04DX003 (ip), vehicle: saline 103 % of control | dose: 100.0 mg/kg/injection, schedule: Q01DX009 (ip), vehicle: saline 88 % of control | [2] 97 % of control and 103 % of control

CCCCCCCCCCCCSC(=O)Nc1ccc([N+](=O)[O-])cc1Cl
inactive: [3] 107 % of control | [4] 102 % of control

Cc1ccc(N=Cc2cc(Cl)cc(Cl)c2OC(=O)c2ccccc2)cc1Cl
inactive: [5] 94 % of control | [6] 111 % of control | [7] 97 % of control

O=C(O)c1cccnc1.[Cu+2]
inactive: dose: 9.5 mg/kg/injection, schedule: Q01DX001 (ip), vehicle: other 97 % of control | dose: 19.0 mg/kg/injection, schedule: Q01DX001 (ip), vehicle: other 97 % of control | dose: 38.0 mg/kg/injection, schedule: Q01DX001 (ip), vehicle: other 100 % of control

COc1ccc(/C=N\NC(=O)c2ccncc2)cc1O
inactive: [5] 118 % of control | [6] 106 % of control | [7] 106 % of control

CCOC(=O)CCCc1ccccc1
inactive: dose: 100.0 mg/kg/injection, schedule: Q04DX003 (ip), vehicle: saline with Tween-80 107 % of control | dose: 200.0 mg/kg/injection, schedule: Q04DX003 (ip), vehicle: saline with Tween-80 90 % of control | dose: 400.0 mg/kg/injection, schedule: Q04DX003 (ip), vehicle: saline with Tween-80 93 % of control

CCC1(O)C(=O)OCc2c1ccn(Cc1ccc3ccccc3c1)c2=O (configuration not stated)
inactive: dose: 25.0 mg/kg/injection, schedule: Q01DX001 (ip), vehicle: saline 92 % of control | dose: 50.0 mg/kg/injection, schedule: Q01DX001 (ip), vehicle: saline 97 % of control | [8] 96 % of control | [9] 94 % of control

Nc1ccc(N=Nc2ccc(S(N)(=O)=O)cc2)c(N)n1
inactive: [8] 107 % of control | [9] 114 % of control | dose: 400.0 mg/kg/injection, schedule: Q01DX001 (ip), vehicle: saline 104 % of control

C=CS(=O)(=O)CCCC
inactive: dose: 100.0 mg/kg/injection, schedule: Q01DX009 (ip), vehicle: saline with Tween-80 97 % of control | dose: 200.0 mg/kg/injection, schedule: Q01DX009 (ip), vehicle: saline with Tween-80 101 % of control

COc1ccc(C=NC(C)(C)CO)c(OC)c1
inactive: dose: 75.0 mg/kg/injection, schedule: Q01DX001 (ip), vehicle: saline 96 % of control | dose: 150.0 mg/kg/injection, schedule: Q01DX001 (ip), vehicle: saline 101 % of control

CC(C)C(C(=O)O)(c1ccccc1)c1ccccc1
inactive: [2] 101 % of control | dose: 200.0 mg/kg/injection, schedule: Q04DX003 (ip), vehicle: saline 103 % of control | dose: 400.0 mg/kg/injection, schedule: Q04DX003 (ip), vehicle: saline 97 % of control

CC(=O)NCC(=O)O
inactive: dose: 100.0 mg/kg/injection, schedule: Q01DX001 (ip), vehicle: Klucel (hydroxypropylcellulose) (HPC) 113 % of control | dose: 200.0 mg/kg/injection, schedule: Q01DX001 (ip), vehicle: Klucel (hydroxypropylcellulose) (HPC) 95 % of control | dose: 300.0 mg/kg/injection, schedule: Q01DX001 (ip), vehicle: Klucel (hydroxypropylcellulose) (HPC) 94 % of control

CC1=CC(=O)C2=C(C)C[C@H](O)[C@@H]3[C@H](OC(=O)[C@H]3C)[C@@H]12
inactive: dose: 100.0 mg/kg/injection, schedule: Q04DX002 (ip), vehicle: saline 100 % of control | dose: 200.0 mg/kg/injection, schedule: Q04DX002 (ip), vehicle: saline 89 % of control | dose: 400.0 mg/kg/injection, schedule: Q04DX002 (ip), vehicle: saline 95 % of control

CCOC(=O)C(Cc1ccc(Cl)cc1)(Cc1ccc(Cl)cc1)C(=O)OCC
inactive: dose: 100.0 mg/kg/injection, schedule: Q01DX009 (ip), vehicle: Klucel (hydroxypropylcellulose) (HPC) 100 % of control | [10] 92 % of control | [3] 98 % of control | [11] 92 % of control | [4] 102 % of control | dose: 400.0 mg/kg/injection, schedule: Q04DX003 (ip), vehicle: Klucel (hydroxypropylcellulose) (HPC) 94 % of control

O=CCC1C=CCC1 (configuration not stated)
inactive: dose: 75.0 mg/kg/injection, schedule: Q01DX001 (ip), vehicle: carboxymethylcellulose (CMC) 101 % of control | dose: 150.0 mg/kg/injection, schedule: Q01DX001 (ip), vehicle: carboxymethylcellulose (CMC) 103 % of control

O=c1oc2ccc3ccccc3c2c(-c2ccc(O)cc2)c1-c1ccccc1
inactive: dose: 100.0 mg/kg/injection, schedule: Q01DX001 (ip), vehicle: saline with Tween-80 89 % of control | dose: 200.0 mg/kg/injection, schedule: Q01DX001 (ip), vehicle: saline with Tween-80 92 % of control | dose: 400.0 mg/kg/injection, schedule: Q01DX001 (ip), vehicle: saline with Tween-80 92 % of control

CC1(C)CC(=O)C(C)(C)C(=O)C1
inactive: dose: 6.25 mg/kg/injection, schedule: Q01DX009 (ip), vehicle: saline with Tween-80 103 % of control | dose: 12.5 mg/kg/injection, schedule: Q01DX009 (ip), vehicle: saline with Tween-80 98 % of control | dose: 25.0 mg/kg/injection, schedule: Q04DX003 (ip), vehicle: saline with Tween-80 102 % of control

CCOC(=O)c1cnc(C)nc1Nc1ccccc1F
inactive: [10] 105 % of control | [11] 104 % of control

CCOC(=O)OC1CC/C(=N\NC(N)=S)C1 (configuration not stated)
inactive: dose: 15.0 mg/kg/injection, schedule: Q01DX Z (ip), vehicle: methylcellulose (MC) 104 % of control | dose: 30.0 mg/kg/injection, schedule: Q01DX Z (ip), vehicle: methylcellulose (MC) 101 % of control | dose: 60.0 mg/kg/injection, schedule: Q01DX Z (ip), vehicle: methylcellulose (MC) 108 % of control | dose: 120.0 mg/kg/injection, schedule: Q01DX Z (ip), vehicle: methylcellulose (MC) 98 % of control

From PubChem BioAssay AID248 (DTP/NCI, 2004)
